Reference: patent EP4603105A1, “PHARMACEUTICAL COMPOSITION CONTAINING CYCLIC COMPOUND HAVING SELECTIVE KRAS INHIBITORY EFFECT AGAINST HRAS AND NRAS” (CHUGAI SEIYAKU KABUSHIKI KAISHA, priority 2022, dated 2024)
Where two headings read alike, the source gives them in different places.

Experiments:
[1] = target: GDP-bound KRAS wild-type protein (Homo sapiens, UniProt P01116); assay: Binding to KRAS by surface plasmon resonance (SPR), dissociation constant KD
Procedure, shortened: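 Measured at 30°C: SPR with GDP-loaded, E. coli-expressed biotin-Avi RAS captured (~100–300 RU), ascending 75 s compound injections, HBS pH 7.4 with GDP, MgCl2, 4% DMSO. KD from 1:1 fit.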

[2] = target: GDP-bound NRAS wild-type protein (Homo sapiens, UniProt P01111); assay: Binding to NRAS by surface plasmon resonance (SPR), KD and KD ratio to KRAS
GDP-bound NRAS wild-type protein, sequence (P01111 whole entry): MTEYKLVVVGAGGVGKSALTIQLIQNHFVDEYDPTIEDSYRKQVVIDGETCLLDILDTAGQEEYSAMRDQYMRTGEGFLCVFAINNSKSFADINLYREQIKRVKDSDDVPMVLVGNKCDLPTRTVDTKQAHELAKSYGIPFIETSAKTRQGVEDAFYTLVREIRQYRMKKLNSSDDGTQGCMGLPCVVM
Procedure, shortened: (§1)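 Running buffer contained 10 µM GDP and 10 mM MgCl2 to keep RAS in the GDP state, with 4% DMSO at pH 7.4. Compounds were flowed at 100 µL/min in 75 s steps of rising concentration over captured biotin-Avi RAS at 30°C. Sensorgrams were fitted 1:1 for KD.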

[3] = target: HRAS wild-type protein (Homo sapiens, UniProt P01112); assay: Binding to HRAS by surface plasmon resonance (SPR), KD and KD ratio to KRAS
HRAS wild-type protein, sequence (P01112 whole entry): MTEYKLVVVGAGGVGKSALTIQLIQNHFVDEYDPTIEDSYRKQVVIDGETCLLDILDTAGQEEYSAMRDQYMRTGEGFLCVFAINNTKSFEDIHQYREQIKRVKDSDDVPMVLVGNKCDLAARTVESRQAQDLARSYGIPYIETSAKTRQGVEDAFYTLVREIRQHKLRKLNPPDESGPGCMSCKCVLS
Procedure, shortened: as §1

[4] = system: human lung cancer strain NCI-H441; assay: NCI-H441 cell proliferation inhibitory activity (CellTiter-Glo, 4 days); assay type: cell-based; conditions: read-out: NCl-H441 IC50
Procedure, shortened: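 Step one: dispense the test compound in serial DMSO dilutions. Step three: add the reagent and measure […].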

[5] = ratio of KD for GDP-bound NRAS wild-type protein to KD for KRAS
[6] = ratio of KD for HRAS wild-type protein to KD for KRAS
[7] = Single Cycle Kinetics, 1:1 binding model
[8] = ratio of KD with respect to GDP-bound NRAS wild-type protein to KD with respect to KRAS
[9] = ratio of KD with respect to HRAS wild-type protein to KD with respect to KRAS
[10] = 50% proliferation inhibitory concentration, four days

GDP-bound KRAS wild-type protein, sequence (P01116 1-188 isoform P01116-2): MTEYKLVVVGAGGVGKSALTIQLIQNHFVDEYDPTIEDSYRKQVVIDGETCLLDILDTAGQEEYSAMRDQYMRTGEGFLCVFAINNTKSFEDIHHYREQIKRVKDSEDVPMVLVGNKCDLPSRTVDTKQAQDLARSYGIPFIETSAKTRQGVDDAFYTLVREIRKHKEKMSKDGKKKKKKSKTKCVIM

Structure (SMILES)	Kd ([1]; 1:1 binding model) [nM]	NRAS /KRAS [2, 5]	HRAS /KRAS [3, 6]	IC50 ([4]; NCI-H441 cells, 4 days) [nM]	Kd [1, 7] [nM]	NRAS /KRAS [2, 8]	HRAS /KRAS [3, 9]	IC50 [4, 10] [nM]	Kd ([1]; Single Cycle Kinetics) [nM]
CCO[C@@H]1C[C@H]2C(=O)NC3(CC(C)(C)C3)C(=O)N(C)[C@@H](C(CC)CC)C(=O)N(C)[C@H](C(=O)N(C)C)CC(=O)N(C)[C@@H](CC3CC3)C(=O)N[C@@H]([C@@H](C)CC)C(=O)N(C)CC(=O)N(C)[C@H]3C/C=C\CCN(C3=O)[C@@H](CC3CCC(F)(F)CC3)C(=O)N(C)CC(=O)N[C@@H](CCc3cc(F)c(C(F)(F)F)c(F)c3)C(=O)N2C1 [PP2485]	0.78	A (a compound having 10 or more and less than 20 is denoted as A)	A (a compound having 10 or more and less than 20 is denoted as A)	55.5	–	–	–	–	–
CCOC[C@H]1C(=O)N[C@@H]([C@@H](C)CC)C(=O)N2CCC[C@H]2C(=O)N(C)[C@H]2C/C=C\CCN(C2=O)[C@@H](Cc2ccc(C)cc2)C(=O)N(C)CC(=O)N[C@@H](CCc2cc(F)c(C(F)(F)F)c(F)c2)C(=O)N2C[C@H](OCC)C[C@H]2C(=O)NC2(CC(C)(C)C2)C(=O)N(C)[C@@H](C2CCCC2)C(=O)N(C)[C@H](C(=O)N(C)CC)CC(=O)N1C [PP2428]	0.62	A (a compound having 10 or more and less than 20 is denoted as A)	A (a compound having 10 or more and less than 20 is denoted as A)	4.8	–	–	–	–	–
CC[C@H](C)[C@@H]1NC(=O)[C@H](CC(C)C)N(C)C(=O)C[C@@H](C(=O)N2CCOCC2)N(C)C(=O)[C@H](C2CCCC2)N(C)C(=O)C2(CCC2)NC(=O)[C@@H]2CCCN2C(=O)[C@H](CCc2cc(F)c(C(F)(F)F)c(F)c2)NC(=O)CN(C)C(=O)[C@H](Cc2ccc(C(F)(F)F)cc2)N2C[C@H](C)[C@H](C)C[C@@H](C2=O)N(C)C(=O)[C@@H]2CCN2C1=O [PP1367]	–	–	–	–	0.34	A (a compound having 10 or more and less than 20 is denoted as A)	B (a compound having 3 or more and less than 10 is denoted as B)	29.3	–
CCC[C@H]1C(=O)N[C@@H]([C@@H](C)CC)C(=O)N2CCC[C@H]2C(=O)N(C)[C@H]2C/C=C\CCN(C2=O)[C@@H](CC2CCCCC2)C(=O)N(C)CC(=O)N[C@@H](CCc2ccc(C(F)(F)F)c(OC)c2)C(=O)N2C[C@@H](C)C[C@H]2C(=O)N(C)C2(CCC2)C(=O)N(C)[C@@H](C2CCCC2)C(=O)N(C)[C@H](C(=O)N(C)C)CC(=O)N1C [PP2374]	0.85	A (a compound having 10 or more and less than 20 is denoted as A)	A (a compound having 10 or more and less than 20 is denoted as A)	67.2	–	–	–	–	–
CCO[C@@H]1C[C@H]2C(=O)NC3(CC(C)(C)C3)C(=O)N(C)[C@@H](C3CCCC3)C(=O)N(C)[C@H](C(=O)N(C)CC)CC(=O)N(C)[C@@H]([C@H](C)OC)C(=O)N[C@@H]([C@@H](C)CC)C(=O)N3CCC[C@H]3C(=O)N(C)[C@H]3C/C=C\CCN(C3=O)[C@@H](Cc3ccc(C)cc3)C(=O)N(C)CC(=O)N[C@@H](CCc3ccc(C(F)(F)F)c(Cl)c3)C(=O)N2C1 [PP3165]	–	A (a compound having 10 or more and less than 20 is denoted as A)	A (a compound having 10 or more and less than 20 is denoted as A)	480	–	–	–	–	1.9
CCO[C@@H]1C[C@H]2C(=O)OC3(CCC3)C(=O)N(C)[C@@H](C3CCCC3)C(=O)N(C)[C@H](C(=O)N(C)C)CC(=O)N(C)[C@@H]([C@H](C)OC)C(=O)N[C@@H]([C@@H](C)CC)C(=O)N3CCC[C@H]3C(=O)N(C)[C@H]3C/C=C\CCN(C3=O)[C@@H](Cc3ccc(C(F)(F)F)cc3)C(=O)N(C)CC(=O)N[C@@H](CCc3ccc(C(F)(F)F)c(OC)c3)C(=O)N2C1 [PP3377]	–	A (a compound having 10 or more and less than 20 is denoted as A)	A (a compound having 10 or more and less than 20 is denoted as A)	11.3	–	–	–	–	0.53
CCC[C@H]1C(=O)N[C@@H]([C@@H](C)CC)C(=O)N2CCC[C@H]2C(=O)N(C)[C@H]2C/C=C\CCN(C2=O)[C@@H](Cc2ccc(C(F)(F)F)cc2)C(=O)N(C)CC(=O)N[C@@H](CCc2cc(F)c(C(F)(F)F)c(F)c2)C(=O)N2CC[C@H](OC)[C@H]2C(=O)N(C)C2(CCC2)C(=O)N(C)[C@@H](C2CCCC2)C(=O)N(C)[C@H](C(=O)N(C)C)CC(=O)N1C [PP3283]	–	A (a compound having 10 or more and less than 20 is denoted as A)	A (a compound having 10 or more and less than 20 is denoted as A)	7.5	–	–	–	–	0.26
CCO[C@@H]1C[C@H]2C(=O)NC3(CCC3)C(=O)N(C)[C@@H](C3CCCC3)C(=O)N(C)[C@H](C(=O)N3CCCC3)CC(=O)N(C)[C@@H](CC3CC3)C(=O)N[C@@H]([C@@H](C)CC)C(=O)N(C)CC(=O)N(C)[C@H]3C/C=C\CCN(C3=O)[C@@H](Cc3ccc(C(F)(F)F)cc3)C(=O)N(C)CC(=O)N[C@@H](CCc3cc(F)c(C(F)(F)F)c(F)c3)C(=O)N2C1 [PP1296]	–	–	–	–	0.12	AA (a compound having 20 or more is denoted as AA)	A (a compound having 10 or more and less than 20 is denoted as A)	14.7	–
CCOC[C@H]1C(=O)N[C@@H]([C@@H](C)CC)C(=O)N(C)CC(=O)N(C)[C@H]2C/C=C\CCN(C2=O)[C@@H](Cc2ccc(C)cc2)C(=O)N(C)CC(=O)N[C@@H](CCc2ccc(C(F)(F)F)c(Cl)c2)C(=O)N2C[C@@H](C)C[C@H]2C(=O)NC2(CC(C)(C)C2)C(=O)N(C)[C@@H](C2CCCC2)C(=O)N(C)[C@H](C(=O)N(C)CC)CC(=O)N1C [PP2451]	0.17	A (a compound having 10 or more and less than 20 is denoted as A)	A (a compound having 10 or more and less than 20 is denoted as A)	8.6	–	–	–	–	–
CCO[C@@H]1C[C@H]2C(=O)NC3(CC(C)(C)C3)C(=O)N(C)[C@@H](C3CCCC3)C(=O)N(C)[C@H](C(=O)N(C)CC)CC(=O)N(C)[C@@H]([C@H](C)OC)C(=O)N[C@@H]([C@@H](C)CC)C(=O)N(C)CC(=O)N(C)[C@H]3C/C=C\CCN(C3=O)[C@@H](Cc3ccc(C)cc3)C(=O)N(C)CC(=O)N[C@@H](CCc3ccc(C(F)(F)F)c(Cl)c3)C(=O)N2C1 [PP3227]	–	A (a compound having 10 or more and less than 20 is denoted as A)	A (a compound having 10 or more and less than 20 is denoted as A)	23.2	–	–	–	–	0.21
CCC(CC)[C@H]1C(=O)N(C)[C@H](C(=O)N(C)C)CC(=O)N(C)[C@@H](COC)C(=O)N[C@@H]([C@@H](C)CC)C(=O)N2CCC[C@H]2C(=O)N(C)[C@H]2C/C=C\CCN(C2=O)[C@@H](Cc2ccc(C(F)F)cc2)C(=O)N(C)CC(=O)N[C@@H](CCc2ccc(Cl)c(Cl)c2)C(=O)N2C[C@H](OC3CCCC3)C[C@H]2C(=O)NC2(CC(C)(C)C2)C(=O)N1C [PP2652]	1.5	AA (a compound having 20 or more is denoted as AA)	A (a compound having 10 or more and less than 20 is denoted as A)	82.7	–	–	–	–	–
CCO[C@@H]1C[C@H]2C(=O)NC3(CCC3)C(=O)N(C)[C@@H](C3CCCC3)C(=O)N(C)[C@H](C(=O)N3CCOCC3)CC(=O)N(C)[C@@H](Cc3ccc(C#N)cc3)C(=O)N[C@@H]([C@@H](C)CC)C(=O)N(C)CC(=O)N(C)[C@H]3CCCCCN(C3=O)[C@@H](Cc3ccc(F)cc3)C(=O)N(C)CC(=O)N[C@@H](CCc3cc(F)c(C(F)(F)F)c(F)c3)C(=O)N2C1 [PP1187]	–	–	–	–	0.12	B (a compound having 3 or more and less than 10 is denoted as B)	B (a compound having 3 or more and less than 10 is denoted as B)	52.3	–
CCC(CC)[C@H]1C(=O)N(C)[C@H](C(=O)N(C)C)CC(=O)N(C)[C@@H](COC)C(=O)N[C@@H]([C@@H](C)CC)C(=O)N(C)CC(=O)N(C)[C@H]2C/C=C\CCN(C2=O)[C@@H](CC2CCC(F)(F)CC2)C(=O)N(C)CC(=O)N[C@@H](CCc2ccc(C(F)(F)F)c(OC)c2)C(=O)N2C[C@@H](C)C[C@H]2C(=O)NC2(CC(C)(C)C2)C(=O)N1C [PP2442]	0.97	A (a compound having 10 or more and less than 20 is denoted as A)	A (a compound having 10 or more and less than 20 is denoted as A)	79.7	–	–	–	–	–
CC[C@H](C)[C@@H]1NC(=O)[C@H](COC)N(C)C(=O)C[C@@H](C(=O)N(C)C)N(C)C(=O)[C@H](C2CCCC2)N(C)C(=O)C2(CC(C)(C)C2)NC(=O)[C@@H]2C[C@@H](OC3CCC3)CN2C(=O)[C@H](CCc2cc(F)c(C(F)(F)F)c(F)c2)NC(=O)CN(C)C(=O)[C@H](CC2CCCCC2)N2CC/C=C\C[C@@H](C2=O)N(C)C(=O)CN(C2CC2)C1=O [PP2618]	1.4	A (a compound having 10 or more and less than 20 is denoted as A)	A (a compound having 10 or more and less than 20 is denoted as A)	69.5	–	–	–	–	–
CCC(CC)[C@H]1C(=O)N(C)[C@H](C(=O)N(C)C)CC(=O)N(C)[C@@H](COC)C(=O)N[C@@H]([C@@H](C)CC)C(=O)N(C2CC2)CC(=O)N(C)[C@H]2C/C=C\CCN(C2=O)[C@@H](Cc2ccc(C)cc2)C(=O)N(C)CC(=O)N[C@@H](CCc2ccc(Cl)c(Cl)c2)C(=O)N2C[C@H](OC(C)C)C[C@H]2C(=O)NC2(CC(C)(C)C2)C(=O)N1C [PP2509]	2.6	AA (a compound having 20 or more is denoted as AA)	A (a compound having 10 or more and less than 20 is denoted as A)	91.3	–	–	–	–	–
